Experimental findings from the supplement of paper PMC10307832 are described below.

Holding throughout (experiment): relative viability (nuclei count vs DMSO), 5 days (fraction); higher = more cells survive
Compound in the experiment “QS11 + Alpelisib”: C1CC2=C(C1)C=C(C=C2)OC3=NC(=C4C(=N3)N(C=N4)CC5=CC=C(C=C5)C6=CC=CC=C6)N[C@@H](CC7=CC=CC=C7)CO [QS11] + Cc1nc(NC(=O)N2CCC[C@H]2C(N)=O)sc1-c1ccnc(C(C)(C)C(F)(F)F)c1 [Alpelisib] (partner 2 µM)
Put shortly:
(§1)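 Each reported value is a median over duplicate plates. It expresses relative viability: treated-well nuclei count divided by vehicle-well nuclei count. Lung cancer cell lines in 1536-well plates were dosed by pin tool a day after seeding, alone with one drug or with a fixed anchor-drug dose plus five library-drug doses (not always all listed) in √10 steps, and nuclei were counted after 5 days.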

Compound in the experiment “AZ628 + Pictilisib”: CC1=C(C=C(C=C1)NC(=O)C2=CC(=CC=C2)C(C)(C)C#N)NC3=CC4=C(C=C3)N=CN(C4=O)C [AZ628] + CS(=O)(=O)N1CCN(Cc2cc3nc(-c4cccc5[nH]ncc45)nc(N4CCOCC4)c3s2)CC1 [Pictilisib] (partner 1 µM)
Put shortly:
as §1

Compound in experiment [1]: C[As](C)SC[C@H](NC(=O)CC[C@H](N)C(=O)O)C(=O)NCC(=O)O [Darinaparsin] + Nc1nc2[nH]cc(CCc3ccc(C(=O)N[C@@H](CCC(=O)O)C(=O)O)cc3)c2c(=O)[nH]1 [Pemetrexed] (partner 0.2 µM)
The essentials: as §1

Compound in experiment [2]: C[As](C)SC[C@H](NC(=O)CC[C@H](N)C(=O)O)C(=O)NCC(=O)O [Darinaparsin] + CC(=O)c1c(C)c2cnc(Nc3ccc(N4CCNCC4)cn3)nc2n(C2CCCC2)c1=O [Palbociclib] (partner 0.5 µM)
Put shortly:
as §1

LCLC-97TM1: the relative viability in the experiment with QS11 + Alpelisib (first compound 0.08 µM) came to 0.225; with QS11 + Alpelisib (first compound 0.253 µM), 0.233; with QS11 + Alpelisib (first compound 0.8 µM), 0.201; in the experiment with QS11 + Alpelisib (first compound 2.53 µM) it was 0.323; in the experiment with QS11 + Alpelisib (first compound 8 µM), 0.299; in the experiment with AZ628 + Pictilisib (first compound 0.08 µM), 0.201. Besides, the relative viability stood at 0.183 with AZ628 + Pictilisib (first compound 0.253 µM); 0.203 with AZ628 + Pictilisib (first compound 0.8 µM); 0.141 in the experiment with AZ628 + Pictilisib (first compound 2.53 µM); 0.12 in the experiment with AZ628 + Pictilisib (first compound 8 µM); 0.162 in experiment [1] (first compound 0.08 µM); 0.177 in experiment [1] (first compound 0.8 µM). For the same cell line, the relative viability came out at 0.166 in experiment [1] (first compound 2.53 µM); 0.185 in experiment [1] (first compound 8 µM); 0.317 in experiment [2] (first compound 0.08 µM); 0.2 in experiment [2] (first compound 0.8 µM); 0.237 in experiment [2] (first compound 2.53 µM); 0.251 in experiment [2] (first compound 8 µM).
